# From PubChem BioAssay AID2060600 (Molecular Pharmacology Branch, DTP, NCI, 2025)
# Tested on: 996289-038-R-J1-PDC complex spheroid viability
# Experiment: Anticancer human tumor 996289-038-R-J1-PDC patient-derived colon adenocarcinoma cell line growth inhibition [CLK]
# Settings: for IC50: curve of first compound; for viability, T/C: stronger effect = lower value
# Outline: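 Patient-derived tumor cells grown as complex spheroids with HUVEC endothelial cells and mesenchymal stem cells, treated with drug combinations. Concentrations descend in half-log steps from near clinical Cmax, or from 10 microM if Cmax unknown.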
# [1] = second compound 0.0316 µM, first compound 0.0316 µM
# [2] = second compound 0.0316 µM, first compound 0.1 µM
# [3] = second compound 0.0316 µM, first compound 0.316 µM
# [4] = second compound 0.0316 µM, first compound 1 µM
# [5] = second compound 0.0316 µM, first compound 3.16 µM
# [6] = second compound 0.0316 µM, first compound 10 µM
# [7] = second compound 0.1 µM, first compound 0.0316 µM
# [8] = second compound 0.1 µM, first compound 0.1 µM
# [9] = second compound 0.1 µM, first compound 0.316 µM
# [10] = second compound 0.1 µM, first compound 1 µM
# [11] = second compound 0.1 µM, first compound 3.16 µM
# [12] = second compound 0.1 µM, first compound 10 µM
# [13] = second compound 0.316 µM, first compound 0.0316 µM
# [14] = second compound 0.316 µM, first compound 0.1 µM
# [15] = second compound 0.316 µM, first compound 0.316 µM
# [16] = second compound 0.316 µM, first compound 1 µM
# [17] = second compound 0.316 µM, first compound 3.16 µM
# [18] = second compound 0.316 µM, first compound 10 µM
# [19] = second compound 1 µM, first compound 0.0316 µM
# [20] = second compound 1 µM, first compound 0.1 µM
# [21] = second compound 1 µM, first compound 0.316 µM
# [22] = second compound 1 µM, first compound 1 µM
# [23] = second compound 1 µM, first compound 3.16 µM
# [24] = second compound 1 µM, first compound 10 µM
# [25] = second compound 3.16 µM, first compound 0.0316 µM
# [26] = second compound 3.16 µM, first compound 0.1 µM
# [27] = second compound 3.16 µM, first compound 0.316 µM
# [28] = second compound 3.16 µM, first compound 1 µM
# [29] = second compound 3.16 µM, first compound 3.16 µM
# [30] = second compound 3.16 µM, first compound 10 µM
# [31] = second compound 10 µM, first compound 0.0316 µM
# [32] = second compound 10 µM, first compound 0.1 µM
# [33] = second compound 10 µM, first compound 0.316 µM
# [34] = second compound 10 µM, first compound 1 µM
# [35] = second compound 10 µM, first compound 3.16 µM
# [36] = second compound 10 µM, first compound 10 µM
# 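Also: spheroids exposed to the agents for 7 days before readout.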
smiles,measurement,setting,value
C=CC(=O)Nc1cc(Nc2nccc(-c3cn(C)c4ccccc34)n2)c(OC)cc1N(C)CCN(C)C + CN1CCN(c2cc(C(=O)Nc3cc4cc(-c5cnn(C)c5)ccc4cn3)ccn2)CC1,IC50,second compound 0.0316 µM,> 300 nM
same,IC50,second compound 0.1 µM,> 300 nM
same,IC50,second compound 0.316 µM,91 nM
same,IC50,second compound 1 µM,< 0.949 nM
same,IC50,second compound 3.16 µM,< 0.949 nM
same,IC50,second compound 10 µM,< 0.949 nM
same,"viability, T/C","second compound 0.0316 µM, first compound 0.000949 µM",104%
same,"viability, T/C","second compound 0.0316 µM, first compound 0.003 µM",104%
same,"viability, T/C","second compound 0.0316 µM, first compound 0.00949 µM",105%
same,"viability, T/C","second compound 0.0316 µM, first compound 0.03 µM",103%
same,"viability, T/C","second compound 0.0316 µM, first compound 0.0949 µM",99.8%
same,"viability, T/C","second compound 0.0316 µM, first compound 0.3 µM",74.7%
same,"viability, T/C","second compound 0.1 µM, first compound 0.000949 µM",93.7%
same,"viability, T/C","second compound 0.1 µM, first compound 0.003 µM",93.7%
same,"viability, T/C","second compound 0.1 µM, first compound 0.00949 µM",91.2%
same,"viability, T/C","second compound 0.1 µM, first compound 0.03 µM",84.4%
same,"viability, T/C","second compound 0.1 µM, first compound 0.0949 µM",86%
same,"viability, T/C","second compound 0.1 µM, first compound 0.3 µM",65.9%
same,"viability, T/C","second compound 0.316 µM, first compound 0.000949 µM",74.2%
same,"viability, T/C","second compound 0.316 µM, first compound 0.003 µM",69%
same,"viability, T/C","second compound 0.316 µM, first compound 0.00949 µM",63.5%
same,"viability, T/C","second compound 0.316 µM, first compound 0.03 µM",56.8%
same,"viability, T/C","second compound 0.316 µM, first compound 0.0949 µM",53.5%
same,"viability, T/C","second compound 0.316 µM, first compound 0.3 µM",37.2%
same,"viability, T/C","second compound 1 µM, first compound 0.000949 µM",6.28%
same,"viability, T/C","second compound 1 µM, first compound 0.003 µM",6.22%
same,"viability, T/C","second compound 1 µM, first compound 0.00949 µM",7.21%
same,"viability, T/C","second compound 1 µM, first compound 0.03 µM",6.93%
same,"viability, T/C","second compound 1 µM, first compound 0.0949 µM",4.43%
same,"viability, T/C","second compound 1 µM, first compound 0.3 µM",1.67%
same,"viability, T/C","second compound 3.16 µM, first compound 0.000949 µM",0.79%
same,"viability, T/C","second compound 3.16 µM, first compound 0.003 µM",1.11%
same,"viability, T/C","second compound 3.16 µM, first compound 0.00949 µM",1.16%
same,"viability, T/C","second compound 3.16 µM, first compound 0.03 µM",1.29%
same,"viability, T/C","second compound 3.16 µM, first compound 0.0949 µM",0.93%
same,"viability, T/C","second compound 3.16 µM, first compound 0.3 µM",0.71%
same,"viability, T/C","second compound 10 µM, first compound 0.000949 µM",1.47%
same,"viability, T/C","second compound 10 µM, first compound 0.003 µM",0.58%
same,"viability, T/C","second compound 10 µM, first compound 0.00949 µM",0.99%
same,"viability, T/C","second compound 10 µM, first compound 0.03 µM",1.04%
same,"viability, T/C","second compound 10 µM, first compound 0.0949 µM",0.51%
same,"viability, T/C","second compound 10 µM, first compound 0.3 µM",1.04%
C#Cc1c(F)ccc2cc(O)cc(-c3ncc4c(N5CC6CCC(C5)N6)nc(OCC56CCCN5CC(F)C6)nc4c3F)c12 (stereo unspecified) + CNC(=O)c1ccc(Nc2nc(OC3CCCC3)c3c(-c4ccc5nc(C)oc5c4)c[nH]c3n2)c(OC)c1,IC50,second compound 0.0316 µM,1820 nM
same,IC50,second compound 0.1 µM,503 nM
same,IC50,second compound 0.316 µM,99.1 nM
same,IC50,second compound 1 µM,< 31.6 nM
same,IC50,second compound 3.16 µM,< 31.6 nM
same,IC50,second compound 10 µM,< 31.6 nM
same,"viability, T/C",[1],107%
same,"viability, T/C",[2],93.2%
same,"viability, T/C",[3],71%
same,"viability, T/C",[4],62.4%
same,"viability, T/C",[5],40%
same,"viability, T/C",[6],29.3%
same,"viability, T/C",[7],106%
same,"viability, T/C",[8],77.1%
same,"viability, T/C",[9],55.9%
same,"viability, T/C",[10],42.4%
same,"viability, T/C",[11],32.2%
same,"viability, T/C",[12],30.5%
same,"viability, T/C",[13],60.7%
same,"viability, T/C",[14],50.4%
same,"viability, T/C",[15],35.6%
same,"viability, T/C",[16],28.3%
same,"viability, T/C",[17],25.5%
same,"viability, T/C",[18],22.4%
same,"viability, T/C",[19],33.8%
same,"viability, T/C",[20],26.5%
same,"viability, T/C",[21],25.4%
same,"viability, T/C",[22],21.5%
same,"viability, T/C",[23],22.1%
same,"viability, T/C",[24],20.6%
same,"viability, T/C",[25],28.3%
same,"viability, T/C",[26],24.3%
same,"viability, T/C",[27],24.5%
same,"viability, T/C",[28],21.4%
same,"viability, T/C",[29],22.9%
same,"viability, T/C",[30],17.8%
same,"viability, T/C",[31],28.7%
same,"viability, T/C",[32],23.1%
same,"viability, T/C",[33],20.2%
same,"viability, T/C",[34],22.3%
same,"viability, T/C",[35],22.8%
same,"viability, T/C",[36],17.9%
Nc1ccccc1NC(=O)c1ccc(CNC(=O)OCc2cccnc2)cc1 + CNC(=O)c1ccc(Nc2nc(OC3CCCC3)c3c(-c4ccc5nc(C)oc5c4)c[nH]c3n2)c(OC)c1,IC50,second compound 0.0316 µM,7090 nM
same,IC50,second compound 0.1 µM,6910 nM
same,IC50,second compound 0.316 µM,4110 nM
same,IC50,second compound 1 µM,1700 nM
same,IC50,second compound 3.16 µM,1880 nM
same,IC50,second compound 10 µM,1840 nM
same,"viability, T/C",[1],118%
same,"viability, T/C",[2],103%
same,"viability, T/C",[3],113%
same,"viability, T/C",[4],91.8%
same,"viability, T/C",[5],70.7%
same,"viability, T/C",[6],41.3%
same,"viability, T/C",[7],118%
same,"viability, T/C",[8],110%
same,"viability, T/C",[9],120%
same,"viability, T/C",[10],97.9%
same,"viability, T/C",[11],71%
same,"viability, T/C",[12],40.2%
same,"viability, T/C",[13],85.5%
same,"viability, T/C",[14],82.9%
same,"viability, T/C",[15],74.3%
same,"viability, T/C",[16],75.5%
same,"viability, T/C",[17],54%
same,"viability, T/C",[18],31.3%
same,"viability, T/C",[19],70.6%
same,"viability, T/C",[20],70.7%
same,"viability, T/C",[21],66.7%
same,"viability, T/C",[22],59.9%
same,"viability, T/C",[23],38.8%
same,"viability, T/C",[24],12.5%
same,"viability, T/C",[25],63.8%
same,"viability, T/C",[26],66.1%
same,"viability, T/C",[27],63.8%
same,"viability, T/C",[28],62.2%
same,"viability, T/C",[29],40.1%
same,"viability, T/C",[30],8.12%
same,"viability, T/C",[31],60.8%
same,"viability, T/C",[32],63.3%
same,"viability, T/C",[33],57.2%
same,"viability, T/C",[34],62.6%
same,"viability, T/C",[35],40.3%
same,"viability, T/C",[36],7.43%
